Measured values as given in patent US9302996B2, “Continuous arycyclic compound” (MITSUBISHI TANABE PHARMA CORPORATION, priority 2010, dated 2016).
Read-outs that look alike come from different tables or passages of the source. Marks after values point to notes of the source that are not given here.

Legend:
Assay type in all cases: in vivo
ICR mice = assay: Triglyceride (TG) in blood plasma increase-inhibiting action due to lipid administration; conditions: Mus musculus; male ICR mice, 5 mg/kg oral, lipid (Intralipos 20%) after 30 minutes, plasma TG 2 hours after lipid; read-out: Inhibiting rate of TG-increase in blood plasma (5 mg/kg)
Outline: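 Male ICR mice (6–9 weeks), fasted overnight, dosed orally with compound in 0.2% CMC; oral lipid emulsion (10 mL/kg) 30 min later. Plasma TG from tail vein before and 2 h after lipid load; rise in TG expressed as percent inhibition versus vehicle group.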

KK-Ay mice = assay: Weight gain-inhibiting action, hypoglycemic effect, insulin in blood plasma lowering action in KK-Ay mice; conditions: male KK-Ay mice, high fat diet, 2 weeks; for inhibition in vivo at 30 mg/kg: Mus musculus, 336 h, 30 mg/kg/day oral
Protocol: To 8 weeks-old male KK-Ay mice were provided high fat diet (Oriental Yeast Co., Ltd, 60 cal % fat), and Test compound suspended in 0.2% carboxymethylcellulose solution was orally administered once a day. Oral administration was continued for 2 weeks, and a weight gain-inhibiting rate of the Test compound was calculated by using a weight gain amount of the solvent control group during the test period as 100%. After final administration, the mice were fasted overnight, and blood was collected from tail vein. Measurement of a blood-sugar level was carried out by using glucose Cα Test Wako (Wako Pure Chemical Industries, Ltd.), and measurement of insulin in blood plasma was carried out by using a mouse insulin measurement kit (Morinaga Institute of Biological Science, Inc.).

C57BL/6J mice = assay: Antifeeding activity (high fat diet intake up to 4 hours); conditions: Mus musculus, male C57BL/6J mice, 5 mg/kg oral, food ingested up to 4 hours, read-out: Antifeeding rate (5 mg/kg)
Protocol: 7 to 10 weeks-old male C57BL/6J mice were fasted overnight, and the test compound suspended in 0.2% carboxymethylcellulose solution was orally administered. Immediately after the administration, high fat diet (Oriental Yeast Co., Ltd, 60 cal % fat) was provided and freely fed. An amount of food ingested up to 4 hours was measured, and a lowering rate (an antifeeding rate) of the amount of food ingested in the Test compound administered group was calculated as compared to that of the solvent control group as a control.

[1] = read-out: Hypoglycemic action (30 mg/kg/day)
[2] = read-out: Insulin in blood plasma-lowering action (30 mg/kg/day)
[3] = read-out: Weight gain-inhibiting action (30 mg/kg/day)
[4] = administration dose of 10 mg/kg/day oral

Compound | inhibition in vivo at 5 mg/kg (ICR mice) [%] | inhibition in vivo at 30 mg/kg (KK-Ay mice; [1]) [%] | inhibition in vivo at 30 mg/kg (KK-Ay mice; [2]) [%] | inhibition in vivo at 30 mg/kg (KK-Ay mice; [3]) [%] | inhibition in vivo at 5 mg/kg (C57BL/6J mice) [%] | Hypoglycemic action (KK-Ay mice; [4]) [%^#] | Insulin in blood plasma-lowering action (KK-Ay mice; [4]) [%^#] | Weight gain-inhibiting action (KK-Ay mice; [4]) [%^#]
CC(C)(COc1cnc(-c2ccc(-c3ncc(C(F)(F)F)[nH]3)nc2)cn1)C(=O)O [Example 92] | 74 | 63 | 58 | 60 | 66 |  |  | 
Cc1cc(OCC(C)(C)C(=O)O)ncc1-c1ccc(-c2ncc(C(F)(F)F)[nH]2)c(C)c1 [Example 77] | 75 | 60 | 65 |  | 65 |  |  | 
Cc1nc(OCC(C)(C)C(=O)O)ccc1-c1ccc(-c2ncc(C(F)(F)F)[nH]2)cc1 [Example 74] | 50 | 56 | 51 | 47 | 60 |  |  | 
CC(C)(COc1ccc(-c2ccc(-c3ncc(C(F)(F)F)[nH]3)c(F)c2)cn1)C(=O)O [Example 76] | 78 | 65 | 81 | 69 | 61 |  |  | 
CC(C)(COc1ccc(-c2ccc(-c3ncc(C(F)(F)F)[nH]3)cc2)cn1)C(=O)O [Example 3-3), 2,2-dimethyl-3-[(5-{4-[5-(trifluoromethyl)-1H-imidazol-2-yl]phenyl}pyridin-2-yl)oxy]propanoic acid] | 78 | 41 | 51 | 52 | 76 |  |  | 
CC(C)(COc1cnc(-c2ccc(-c3nc(C(F)(F)F)c[nH]3)cc2)cn1)C(=O)O [Example 89-2), 2,2-dimethyl-3-[(5-{4-[4-(trifluoromethyl)-1H-imidazol-2-yl]phenyl}pyrazin-2-yl)oxy]-propanoic acid] | 52 | 68 | 88 | 63 | 75 |  |  | 
Cc1cc(OCC(C)(C)C(=O)O)ncc1-c1ccc(-c2ncc(C(F)(F)F)[nH]2)cc1 [Example 73] | 88 | 40 | 69 | 62 | 82 |  |  | 
Cc1cc(OCC(C)(C)C(=O)O)ncc1-c1ccc(-c2ncc(C(F)(F)F)[nH]2)c(F)c1 [Example 62-3), 3-[(5-{3-fluoro-4-[5-(trifluoromethyl)-1H-imidazol-2-yl]phenyl}-4-methylpyridin-2-yl)oxy]-2,2-dimethylpropanoic acid] | 85 | 80 | 95 | 161 | 63 |  |  | 
CC(C)(COc1ccc(-c2cnc(-c3ncc(C(F)(F)F)[nH]3)cn2)cc1)C(=O)O [Example 7-7), 2,2-dimethyl-3-(4-{5-[5-(trifluoromethyl)-1H-imidazol-2-yl]pyrazin-2-yl}phenoxy)-propanoic acid] | 71 | 62 | 58 | 66 | 75 |  |  | 
Cc1cc(OCC(C)(C)C(=O)O)ncc1-c1ccc(-c2ncc(CC3CC3)[nH]2)c(F)c1 [Example 96-2), 3-[(5-{4-[5-(cyclopropylmethyl)-1H-imidazol-2-yl]-3-fluorophenyl}-4-methylpyridin-2-yl)oxy]-2,2-dimethylpropanoic acid] | 48 | 66 | 71 | 75 | 58 |  |  | 
CC(C)Cc1cnc(-c2ccc(-c3ccc(OCC(C)(C)C(=O)O)cc3)nc2)[nH]1 [Example 26] | 67 | 40 | 27 | 44 | 79 |  |  | 
Cc1cc(OCC(C)(C)C(=O)O)ncc1-c1ccc(-c2ncc(C(F)(F)F)[nH]2)nc1 [Example 61-3), 2,2-dimethyl-3-({4-methyl-6′-[5-(trifluoromethyl)-1H-imidazol-2-yl]-3,3′-bipyridin-6-yl}oxy)propanoic acid] | 68 | 60 | 77 | 90 | 80 |  |  | 
Cc1cc(OCC(C)(C)C(=O)O)ncc1-c1ccc(-c2ncc(C(F)(F)F)[nH]2)cn1 [Example 72] | 85 | 38 | 28 | 43 | 65 |  |  | 
Cc1cc(OCC(C)(C)C(=O)O)ncc1-c1cnc(-c2ncc(C(F)(F)F)[nH]2)c(C)c1 [Example 114] | 64 | 48 | 60 | 45 | 59 |  |  | 
Cc1cc(OCC(C)(C)C(=O)O)ncc1-c1cnc(-c2ncc(C(F)(F)F)[nH]2)c(F)c1 [Example 107] | 62 | 57 | 58 | 48 | 57 |  |  | 
CC(C)(COc1ccc(-c2ccc(-c3ncc(C4CC(F)(F)C4)[nH]3)cn2)cc1)C(=O)O [Example 33] | 54 | 42 | 41 | 39 | 44 |  |  | 
CC(C)(COc1ccc(-c2ccc(-c3ncc(C(F)(F)F)[nH]3)nn2)cc1)C(=O)O [Example 87-7), 2,2-dimethyl-3-(4-{6-[4-(trifluoromethyl)-1H-imidazol-2-yl]pyridazin-3-yl}phenoxy)-propanoic acid] | 57 | 35 | 19 | 22 | 59 |  |  | 
CC(C)(COc1ncc(-c2ccc(-c3ncc(C(F)(F)F)[nH]3)c(F)c2)cc1F)C(=O)O [Example 84] | 75 | 65 | 76 | 48 | 64 |  |  | 
Cc1cc(OCC(C)(C)C(=O)O)ncc1-c1ccc(-c2ncc(C3(C(F)(F)F)CC3)[nH]2)nc1 [Example 36] | 69 | 23 | 19 | 59 | 63 |  |  | 
Cc1cc(-c2ccc(OCC(C)(C)C(=O)O)cc2)ncc1-c1ncc(C(F)(F)F)[nH]1 [Example 5-3), 2,2-dimethyl-3-(4-{4-methyl-5-[5-(trifluoromethyl)-1H-imidazol-2-yl]pyridin-2-yl}-phenoxy)propanoic acid] | 71 | 55 | 56 | 48 | 37 |  |  | 
CC(C)(COc1ccc(-c2ccc(-c3ncc(C(F)(F)C(F)(F)F)[nH]3)cn2)cc1)C(=O)O [Example 69] | 85 |  |  |  | 87 | 61 | 37 | 43
Cc1cc(OCC(C)(C)C(=O)O)ncc1-c1ccc(-c2ncc(C(F)(F)F)[nH]2)c(Cl)c1 [Example 63-3), 3-[(5-{3-chloro-4-[5-(trifluoromethyl)-1H-imidazol-2-yl]phenyl}-4-methylpyridin-2-yl)oxy]-2,2-dimethylpropanoic acid] | 60 | 77 | 90 | 115 | 83 |  |  | 
CC(C)(COc1ccc(-c2ccc(-c3ncc(C4(C(F)(F)F)CC4)[nH]3)c(F)c2)cn1)C(=O)O [Example 45] | 71 | 59 | 56 | 42 | 72 |  |  | 
Cc1cc(OCC(C)(C)C(=O)O)ncc1-c1ccc(-c2ncc(CC(C)C)[nH]2)nc1 [Example 117] | 57 | 36 | 35 | 31 | 55 |  |  | 
